Source: paper PMC8221581, “Functional Characterization of Olfactory Proteins Involved in Chemoreception of Galeruca daurica” (Frontiers in Physiology, 2021)
Read-outs that look alike come from different tables or passages of the source.

Tests used:
GdauOBP15 = GdauOBP15 (Galeruca daurica, UniProt A0A1U9W4Z9); test: Fluorescence competitive binding assay (1-NPN reporter), recombinant GdauOBP15; conditions: for Ki: Ki = IC50/(1 + [1-NPN]/K1-NPN)
Procedure: (§1) Fluorescence-binding assays were performed using a 970CRT spectrofluorophotometer (Hitachi, Japan). Instrument parameters were set as follows: Excitation slit of 10 nm, emission slit of 10 nm, sensitivity of 2 s, excitation wavelength of 337 nm, and scanning emission wavelength range of 350–700 nm. In order to measure the affinity of the fluorescent ligand 1-NPN (N-phenyl-1-naphthylamine) with the six recombinant proteins, the recombinant proteins were diluted to 2 μM in 50 mM Tris–HCl (pH 7.4) and added into a 1-cm light path quartz cuvette. Fluorescence values were recorded after the 1-NPN solution was added successively. The dissociation constant K1–NPN was calculated using GraphPad Prism 7.0 software.
(§2) Thirteen main volatiles of the host plant (A. mongolicum) were selected as competing ligands for the fluorescence competitive binding assays (Table 1). All ligands were purchased from Sigma-Aldrich (St. Louis, MO, United States). These ligands were dissolved in methanol (HPLC grade) to make stock solutions of 1 mM, which were added into a 2-μM protein solution with 1-NPN saturated. […] Three duplications were used in the binding experiment. The curves were fitted using Scatchard plots. The dissociation constants (Ki) of the competitive ligands were calculated based on the equation: Ki = IC50/(1 + [1−NPN]/K1−NPN), where IC50 is the concentration of a competitor that results in a 50% reduction of the initial fluorescence intensity, and [1-NPN] and K1–NPN are the free concentration of 1-NPN and the dissociation constant of the recombinant protein/1-NPN complex, respectively ([Campanacci et al., 2001]).

GdauCSP5 = GdauCSP5 (Galeruca daurica, UniProt A0A1W6GWH8); test: Fluorescence competitive binding assay (1-NPN reporter), recombinant GdauCSP5; conditions: for Ki: Ki = IC50/(1 + [1-NPN]/K1-NPN)
Chain of GdauCSP5 (A0A1W6GWH8 entry or part of it): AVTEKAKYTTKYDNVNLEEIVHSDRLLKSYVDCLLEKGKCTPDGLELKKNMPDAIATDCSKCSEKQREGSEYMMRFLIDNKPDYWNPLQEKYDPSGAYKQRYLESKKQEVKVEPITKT
Procedure: as §1, §2

GdauOBP10 = GdauOBP10 (Galeruca daurica, UniProt A0A1U9W4Z5); test: Fluorescence competitive binding assay (1-NPN reporter), recombinant GdauOBP10; conditions: for Ki: Ki = IC50/(1 + [1-NPN]/K1-NPN)
Chain of GdauOBP10 (A0A1U9W4Z5 entry or part of it): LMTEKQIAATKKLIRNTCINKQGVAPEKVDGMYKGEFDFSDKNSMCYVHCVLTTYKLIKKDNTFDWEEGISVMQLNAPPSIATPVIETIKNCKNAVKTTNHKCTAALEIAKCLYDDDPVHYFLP
Procedure: as §1, §2

GdauOBP6 = GdauOBP6 (Galeruca daurica, UniProt A0A1U9W4Z8); test: Fluorescence competitive binding assay (1-NPN reporter), recombinant GdauOBP6; conditions: for Ki: Ki = IC50/(1 + [1-NPN]/K1-NPN)
Chain of GdauOBP6 (A0A1U9W4Z8 entry or part of it): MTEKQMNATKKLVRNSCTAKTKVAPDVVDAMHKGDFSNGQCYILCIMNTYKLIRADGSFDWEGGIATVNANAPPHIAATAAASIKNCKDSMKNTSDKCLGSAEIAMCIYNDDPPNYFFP
Procedure: as §1, §2

G. daurica antennae [1] = test: Electroantennogram (EAG) of dsRNA-CSP5-injected adults to host plant volatiles; set-up: species or system Galeruca daurica; conditions: dsRNA-CSP5-injected females vs dsRNA-GFP control; 10 μL of 1 mol/L odorant
Procedure: (§3) Two microliters of dsRNA (1,000 μg/μL) was injected into the intersegmental membrane between the fourth and fifth abdominal segments of 3-day-old adult females and males using a microinjector (Shimadzu, Japan). All the treated insects, including dsRNA-OBP15-injected, dsRNA-CSP5-injected, and dsRNA-GFP-injected, were reared under natural temperature conditions in the lab. Samples were taken 48 h later for interference efficiency measurement and electroantennogram analysis.
Electroantennograms were conducted to record the antennal responses of dsRNA-OBP15-injected, dsRNA-CSP5-injected, and dsRNA-GFP-injected to 12 plant volatiles. These odorants were dissolved in dichloromethane (HPLC grade) to make stock solutions of 1 mol/L, and dichloromethane alone served as solvent control. The antennae were cut off at the base, and the ends were removed then attached to the electrode with electrode gel. Filter paper strips (1 cm × 0.5 cm) were loaded with 10 μL of each chemical solution and then inserted into a Pasteur pipette. The tube was connected to an air stimulus controller (CS-55; SynTech). The signals were detected by a high-impedance amplifier (IDAC-2; SynTech) and analyzed using SynTech software (GC-EAD 2014 v1.2.5). The pulse duration time was 0.2 s with a stimulation interval of 30 s, and each compound was tested three times for each antenna. It was taken as the absolute value of the difference value between the maximum amplitude achieved by the odor stimulus and the baseline level. Each antenna was stimulated three times. All EAG results are presented as the mean EAG values from six female or male antennae.
The binding assay curve was fitted by GraphPad Prism 7.0, using the least squares (ordinary) fit of the second-order polynomial. Data from qPCR and EAG assays were analyzed using SPSS Statistics 17.0. T-test (P < 0.05) was used to analyze the differences among the groups.

GdauOBP1 = GdauOBP1 (Galeruca daurica, UniProt A0A1U9W4Y5); test: Fluorescence competitive binding assay (1-NPN reporter), recombinant GdauOBP1; conditions: for Ki: Ki = IC50/(1 + [1-NPN]/K1-NPN)
Chain of GdauOBP1 (A0A1U9W4Y5 entry or part of it): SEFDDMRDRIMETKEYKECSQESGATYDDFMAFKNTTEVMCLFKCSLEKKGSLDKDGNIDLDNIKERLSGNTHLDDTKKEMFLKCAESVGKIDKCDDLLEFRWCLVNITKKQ
Procedure: as §1, §2

GdauCSP4 = GdauCSP4 (Galeruca daurica, UniProt A0A1W6GWH1); test: Fluorescence competitive binding assay (1-NPN reporter), recombinant GdauCSP4; conditions: for Ki: Ki = IC50/(1 + [1-NPN]/K1-NPN)
Chain of GdauCSP4 (A0A1W6GWH1 entry or part of it): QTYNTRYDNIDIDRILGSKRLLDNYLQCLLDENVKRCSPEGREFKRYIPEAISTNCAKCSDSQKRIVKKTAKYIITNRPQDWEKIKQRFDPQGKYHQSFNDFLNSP
Procedure: as §1, §2

G. daurica antennae [2] = test: Electroantennogram (EAG) of dsRNA-OBP15-injected adults to host plant volatiles; set-up: species or system Galeruca daurica; conditions: dsRNA-OBP15-injected females vs dsRNA-GFP control; 10 μL of 1 mol/L odorant
Procedure: as §3
Electroantennograms were conducted to record the antennal responses of dsRNA-OBP15-injected, dsRNA-CSP5-injected, and dsRNA-GFP-injected to 12 plant volatiles. These odorants were dissolved in dichloromethane (HPLC grade) to make stock solutions of 1 mol/L, and dichloromethane alone served as solvent control. The antennae were cut off at the base, and the ends were removed then attached to the electrode with electrode gel. Filter paper strips (1 cm × 0.5 cm) were loaded with 10 μL of each chemical solution and then inserted into a Pasteur pipette. […] The signals were detected by a high-impedance amplifier (IDAC-2; SynTech) and analyzed using SynTech software (GC-EAD 2014 v1.2.5). […]
The binding assay curve was fitted by GraphPad Prism 7.0, using the least squares (ordinary) fit of the second-order polynomial. Data from qPCR and EAG assays were analyzed using SPSS Statistics 17.0. […]

[3] = GdauOBP15, 2 μM protein, 1-NPN saturated, 50 mM Tris–HCl pH 7.4, read-out: IC50
[4] = GdauCSP5, 2 μM protein, 1-NPN saturated, 50 mM Tris–HCl pH 7.4, read-out: IC50
[5] = GdauOBP10, 2 μM protein, 1-NPN saturated, 50 mM Tris–HCl pH 7.4, read-out: IC50
[6] = GdauOBP6, 2 μM protein, 1-NPN saturated, 50 mM Tris–HCl pH 7.4, read-out: IC50
[7] = GdauOBP1, 2 μM protein, 1-NPN saturated, 50 mM Tris–HCl pH 7.4, read-out: IC50
[8] = GdauCSP4, 2 μM protein, 1-NPN saturated, 50 mM Tris–HCl pH 7.4, read-out: IC50

Chain of GdauOBP15 (A0A1U9W4Z9 entry or part of it): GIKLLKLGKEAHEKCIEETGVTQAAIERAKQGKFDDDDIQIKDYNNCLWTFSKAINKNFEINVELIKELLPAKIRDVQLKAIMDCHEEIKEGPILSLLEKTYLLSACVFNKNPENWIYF

Row | IC50 (GdauOBP15; [3]) | Ki (GdauOBP15; GdauOBP15) | IC50 (GdauCSP5; [4]) | Ki (GdauCSP5; GdauCSP5) | IC50 (GdauOBP10; [5]) | Ki (GdauOBP10; GdauOBP10) | IC50 (GdauOBP6; [6]) | Ki (GdauOBP6; GdauOBP6) | IC50 (GdauOBP1; [7]) | Ki (GdauOBP1; GdauOBP1) | IC50 (GdauCSP4; [8]) | Ki (GdauCSP4; GdauCSP4) | SMILES | EAG response compared to the control (G. daurica antennae [1]) | IC50 (GdauOBP15) | IC50 (GdauCSP5) | IC50 (GdauOBP10) | IC50 (GdauOBP6) | IC50 (GdauOBP1) | IC50 (GdauCSP4) | other results
1 | 51.7 µM | 45.6 µM | 45.5 µM | 33.5 µM | 59.9 µM | 46.2 µM | 80.5 µM | 69.2 µM | 63 µM | 53.8 µM | 23.4 µM | 21.2 µM | C1=CC=CCC=C1 [1,3,5-cycloheptatriene, 1,3,5-Cycloheptatriene] | significantly lower | – | – | – | – | – | – | –
2 | – | – | – | – | – | – | – | – | – | – | – | – | C1CSCSC1 [1,3-dithiane] | significantly lower | 57.2 µM | 50 µM | 59.5 µM | 36.7 µM | 70.6 µM | 18.5 µM | –
3 | – | – | – | – | – | – | – | – | – | – | – | – | c1ccc(Nc2cccc3ccccc23)cc1 [1-NPN, N-phenyl-1-naphthylamine, reference compound] | – | – | – | – | – | – | – | Kd (GdauOBP15): 14.6 µM; Kd (GdauCSP5): 5.34 µM; Kd (GdauOBP10): 6.54 µM; Kd (GdauOBP6): 11.8 µM; Kd (GdauOBP1): 11.4 µM; Kd (GdauCSP4): 18.9 µM
4 | – | – | – | – | – | – | – | – | – | – | – | – | CCCC=CC=O [2-hexenal, 2-Hexenal] | significantly lower | 41.7 µM | 34.4 µM | 85.5 µM | 33.9 µM | 95.9 µM | 17.5 µM | EAG response compared to the control (G. daurica antennae [2]): reduced significantly
5 | – | – | – | – | – | – | – | – | – | – | – | – | CCC/C=C\CO [(Z)-2-hexen-1-ol, (Z)-2-Hexen-1-ol] | – | 76 µM | – | 95.6 µM | 33 µM | 86.4 µM | 50 µM | –
6 | – | – | – | – | – | – | – | – | – | – | – | – | C=CCSSCC=C [Diallyl disulfide] | – | 42.3 µM | 61.6 µM | – | 72.1 µM | 97.1 µM | 23.5 µM | –
7 | 48.1 µM | 42.4 µM | 72.2 µM | 53.1 µM | 77.8 µM | 60.1 µM | 55 µM | 47.3 µM | – | – | 43.8 µM | 39.7 µM | C=CCSCC=C [Diallyl sulfide] | – | – | – | – | – | – | – | –
8 | 56.7 µM | 50 µM | 53.7 µM | 39.5 µM | 67.4 µM | 52.1 µM | 44.5 µM | 38.2 µM | 63.2 µM | 54 µM | 16.6 µM | 15 µM | CSSSC [Dimethyl trisulfide] | significantly lower | – | – | – | – | – | – | –
9 | – | – | – | – | – | – | – | – | – | – | – | – | CCCCCC=O [Hexanal] | significantly lower | 68.8 µM | 61.4 µM | 52 µM | 32.3 µM | 70.8 µM | 15.4 µM | –
10 | – | – | – | – | – | – | – | – | – | – | – | – | COC(=O)c1ccccc1 [Methyl benzoate] | significantly lower | 35.9 µM | 44.3 µM | 73.9 µM | 36.4 µM | 65.4 µM | 13.3 µM | –
11 | – | – | 84.2 µM | 61.9 µM | – | – | 68.7 µM | 59 µM | 82.6 µM | 70.6 µM | – | – | C=CC(=C)CCC=C(C)C [Myrcene] | significantly lower | – | – | – | – | – | – | –
12 | – | – | – | – | – | – | – | – | – | – | – | – | Cc1ccc(C)cc1 [p-xylene, p-Xylene] | significantly lower | 49.9 µM | 55.7 µM | 58 µM | 72.5 µM | 84.7 µM | 19.7 µM | –

Row | SMILES | IC50 (GdauOBP15; [3]) | Ki (GdauOBP15; GdauOBP15) | IC50 (GdauCSP5; [4]) | Ki (GdauCSP5; GdauCSP5) | IC50 (GdauOBP10; [5]) | Ki (GdauOBP10; GdauOBP10) | IC50 (GdauOBP6; [6]) | Ki (GdauOBP6; GdauOBP6) | IC50 (GdauOBP1; [7]) | Ki (GdauOBP1; GdauOBP1) | IC50 (GdauCSP4; [8]) | Ki (GdauCSP4; GdauCSP4) | EAG response compared to the control (G. daurica antennae [1]) | IC50 (GdauOBP15) | IC50 (GdauCSP5) | IC50 (GdauOBP10) | IC50 (GdauOBP6) | IC50 (GdauOBP1) | IC50 (GdauCSP4) | other results
13 | CSSC [Dimethyl disulfide] | 26.2 µM | 23.1 µM | 36 µM | 26.5 µM | 61.9 µM | 47.8 µM | 29.9 µM | 25.7 µM | 64.9 µM | 55.4 µM | 23.1 µM | 21 µM | – | – | – | – | – | – | – | –
